Experimental data published in patent US11208642B2, “Microbial syringol utilization” (Alliance for Sustainable Energy, LLC, priority 2018, dated 2021).

Columns and labels:
GcoA = GcoA (Amycolatopsis sp., UniProt P0DPQ7, H210Q); assay: Syringol binding to wild-type GcoA (KD)
Text: The syringol binding mode can be modulated by active site engineering. Guaiacol assumes a productive orientation in the active site of GcoA due to the action of amino acid side chains that create a tight-fitting hydrophobic pocket. The closest contact is with GcoA-F169, which forms a hydrophobic interaction with the C6 carbon on the aromatic ring of guaiacol. […] We identified that the mutation of GcoA-F169 to a smaller residue may relieve the apparent steric clash between it and the bound ligand in the active site, allowing syringol to adopt a productive conformation. To test this hypothesis, GcoA-F169 was substituted with several alternative amino acids (A, S, H, V, I, and L) with the aim of introducing productive syringol turnover while retaining reactivity with guaiacol.

GcoA-F169A and GcoB = molecular target: T1, GcoA-F169A and GcoB (Amycolatopsis sp., UniProt P0DPQ7, F169A/H210Q); assay: Stoichiometric end-point analysis of reactants and products (HPLC, formaldehyde assay); type: biochemical; conditions: for Formaldehyde produced: 100 μM substrate, 210 μM O2, reaction to completion
T1 construct: GST (N, cleaved yes); made in house; host or cells: E. coli Rosetta 2 (DE3)
T1 sequence (P0DPQ7 whole entry F169A/H210Q): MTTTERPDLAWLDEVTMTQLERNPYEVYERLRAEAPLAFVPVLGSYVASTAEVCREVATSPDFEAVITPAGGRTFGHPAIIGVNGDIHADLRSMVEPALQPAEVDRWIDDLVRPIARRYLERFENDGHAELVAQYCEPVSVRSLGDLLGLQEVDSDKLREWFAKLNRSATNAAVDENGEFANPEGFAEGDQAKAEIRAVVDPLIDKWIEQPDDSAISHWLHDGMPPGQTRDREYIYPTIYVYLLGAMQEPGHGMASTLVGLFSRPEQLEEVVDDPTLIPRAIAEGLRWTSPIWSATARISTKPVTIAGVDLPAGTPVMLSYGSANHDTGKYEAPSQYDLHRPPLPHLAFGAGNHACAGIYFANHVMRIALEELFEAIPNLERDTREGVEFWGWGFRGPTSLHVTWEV
Experimental: FIG. 3 depicts quantitative analyses of substrate consumption and product generation indicate nearly complete coupling of NADH/O2 consumption to substrate O-demethylation for guaiacol, and progressively more uncoupling for syringol and 3MC. NADH (200 μM) and guaiacol, syringol, or 3MC (100 or 200 μM) were incubated in air with 0.2 μM GcoA-F169A and GcoB (each) (25 mM HEPES, 50 mM NaCl, pH 7.5, 25° C., 210 μM O2). Reactants and products were quantified when the UV/vis spectra ceased changing and the reaction deemed complete. The total NADH consumed is compared above to the amounts of formaldehyde and de-methylated aromatic compound produced. Pyrogallol, the O-demethylated product of 3MC, was not detected under any condition. Error bars represent ±1 standard deviation from three or more independent measurements.
Since both methoxy groups of syringol can potentially serve as substrates, we examined syringol turnover in a number of ways. Syringol (100 μM) was first incubated with NADH (200 μM) and excess dissolved O2 (210 μM), and the reaction with the GcoA-F169A mutant allowed to go to completion. As with the guaiacol reaction, all of the NADH and syringol were consumed (FIG. 3), implying that syringol undergoes two O-demethylations, producing 3MC and then pyrogallol (210 μM O2, 25 mM HEPES, 50 mM NaCl, pH 7, 25° C.).
The stoichiometric analysis was next repeated with NADH and syringol present in equal concentrations (200 μM each; 210 μM O2), conditions expected to permit at most half of the available methoxy groups to react. All of the NADH and 150±6 μM of syringol were consumed; 200±3 μM formaldehyde and 120±2 μM 3MC were generated (Table 1, FIG. 3).
Formaldehyde determination. A colorimetric assay using tryptophan can be used to quantify the amount of formaldehyde produced in F169 GcoA/B reactions with guaiacol, syringol, or 3MC. 0.2 μM each of F169 GcoA mutants and GcoB were dissolved in air-saturated buffer (25 mM HEPES, 50 mM NaCl) in a cuvette at pH 7.5, 25° C. 100 μg/mL catalase was added to each reaction to capture any H2O2 formed during the uncoupled reaction. Two hundred μM NADH was added and the background rate recorded. One hundred (guaiacol, syringol, or 3MC) or 200 (syringol) μM of substrate was then added and the reaction monitored until there was no more change, due to either substrate, NADH or O2 depletion, whichever occurred first. 200 μL of the reaction was then quenched by adding 200 μL of a 0.1% tryptophan solution in 50% ethanol and 200 μL of 90% sulfuric acid. Upon thorough mixing, 40 μL of 1% FeCl3 was added. The solution was then incubated in a heating block for 90 min at 70° C. After cooling, the absorbance was read at 575 nm and the concentration of formaldehyde was calculated by using ε575 nm=4.2 mM^−1 cm^−1, obtained with formaldehyde as a standard. A negative control included everything but the substrate and was used as a baseline.
Analyte analysis of the above end-point reactions (100 μM guaiacol, syringol, or 3MC, or 200 μM syringol) was performed on an Agilent 1100 LC system (Agilent Technologies) equipped with a G1315B diode array detector (DAD). Each sample and standard was injected at a volume of 10 μL onto a Symmetry C18 column 5 μm, 4.6×150 mm column (Waters). The column temperature was maintained at 30° C. and the buffers used to separate the analytes of interest was 0.01% TFA in water (A)/acetonitrile (B). The separation was carried out using a gradient program of: (A)=99% and (B)=1% at time t=0 min; (A)=99% and (B)=1% at time t=2 min, (A)=50% and (B)=50% at t=8 min; (A)=1% and (B)=99% at t=8.01 min; (A)=99% and (B)=1% at t=10.01 min; (A)=99% and (B)=1% at t=11 min. The flow rate was held constant at 1.5 mL min^−1, resulting in a run time of 11 minutes. DAD wavelengths of 210 and 325 nm were used for analysis of the analytes of interest. Standard curves were generated using 0-500 μM of guaiacol, syringol, 3MC, catechol, and pyrogallol. […]

[1] = 200 μM syringol, 200 μM NADH, 210 μM O2

Sequence of GcoA (P0DPQ7 whole entry H210Q): as the sequence (P0DPQ7 whole entry F169A/H210Q) above, with A169F counted along it

| Structure (SMILES) | Kd (GcoA) | Formaldehyde produced (GcoA-F169A and GcoB; 200 μM NADH) | Singly demethylated intermediate 3MC observed at end of reaction (GcoA-F169A and GcoB; 100 μM syringol, 200 μM NADH, 210 μM O2) | 3MC generated (GcoA-F169A and GcoB; [1]) | Formaldehyde generated (GcoA-F169A and GcoB; [1]) | Syringol consumed (GcoA-F169A and GcoB; [1]) | Pyrogallol detection (GcoA-F169A and GcoB; any of the conditions used) |
| --- | --- | --- | --- | --- | --- | --- | --- |
| COc1cccc(OC)c1O [syringol, 2,6-dimethoxyphenol] | 2800 ± 400 nM | 170 ± 10 µM | 50 ± 4 µM | 120 ± 2 µM | 200 ± 3 µM | 150 ± 6 µM | not detected |
| COc1cccc(O)c1O [3MC, 3-methoxycatechol] | – | approximately 100 μM | – | – | – | – | – |
